Measured values published in patent publication US8143303B2, “Carbazole derivatives as functional 5-HT6 ligands” (Suven Life Sciences Limited, priority 2005, dated 2012).

Legend:
[1] = target: T1, Human 5-HT6 receptor (Homo sapiens, UniProt P50406); assay: Nova Screen binding assay for human 5-HT6 receptor ([3H]LSD); conditions: Human recombinant receptor expressed in HEK-293 cells; [3H]LSD 1.5 nM; 60 minutes at 37° C.
T1 construct: host or cells: HEK-293
Method: Nova Screen Binding Assay for Human 5-HT6 Receptor
Pharmacological data Compounds can be tested according to the following the procedures.
Receptor source: Human recombinant expressed in HEK-293 cells
Radioligand: [^3H]LSD (60-80 Ci/mmol)
Final ligand concentration—[1.5 nM]
Non-specific determinant: Methiothepin mesylate—[0.1 μM]
Reference compound: Methiothepin mesylate
Positive control: Methiothepin mesylate
Incubation conditions: Reactions were carried out in 50 mM TRIS HCl (pH 7.4) containing 10 mM MgCl2, 0.5 mM EDTA for 60 minutes at 37° C. The reaction was terminated by rapid vacuum filtration onto glass fiber filters. Radioactivity trapped onto the filters was determined and compared to control values in order to ascertain any interactions of test compound(s) with the cloned serotonin-5HT6 binding site.
Mol. Pharmacol. (43): 320-327 (1993).

T1 sequence (P50406 whole entry): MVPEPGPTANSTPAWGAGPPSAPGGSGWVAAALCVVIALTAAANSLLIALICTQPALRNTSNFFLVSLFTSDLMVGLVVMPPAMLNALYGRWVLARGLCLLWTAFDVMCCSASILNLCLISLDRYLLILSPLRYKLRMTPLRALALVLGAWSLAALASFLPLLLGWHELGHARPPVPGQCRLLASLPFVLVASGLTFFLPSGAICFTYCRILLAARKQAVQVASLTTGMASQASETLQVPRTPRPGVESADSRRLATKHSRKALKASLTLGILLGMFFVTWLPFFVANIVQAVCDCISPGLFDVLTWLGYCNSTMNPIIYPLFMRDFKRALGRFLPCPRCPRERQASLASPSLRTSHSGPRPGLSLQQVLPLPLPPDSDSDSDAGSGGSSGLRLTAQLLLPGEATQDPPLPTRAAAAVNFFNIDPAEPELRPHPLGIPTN

Row | Compound | melting point | IC50 [1] | Ki [1]
1 | CN(C)C1CCc2c(c3cc(Br)ccc3n2S(=O)(=O)c2ccc(F)cc2)C1 (stereo not drawn) [Example 11, [6-Bromo-9-(4-fluorobenzenesulphonyl)-2,3,4,9-tetrahydro-1H-carbazol-3-yl]dimethylamine] | 158.1 to 160 °C | 20.2 nM | 9.42 nM
2 | CC(C)c1ccc(S(=O)(=O)n2c3c(c4cc(F)ccc42)CC(N(C)C)CC3)cc1 (stereo not drawn) [Example 23, [6-Fluoro-9-(4-isopropylbenzenesulfonyl)-2,3,4,9-tetrahydro-1H-carbazol-3-yl]dimethylamine] | 95.4 to 103.8 °C | 33.4 nM | 15.5 nM
3 | CC(C)c1ccc(S(=O)(=O)n2c3c(c4cc(Br)ccc42)CC(N(C)C)CC3)cc1 (stereo not drawn) | 152.75 to 154.98 °C | – | –
4 | CSc1ccc2c(c1)c1c(n2S(=O)(=O)c2ccc(C)cc2)CCC(N(C)C)C1 (stereo not drawn) [Example 33, [6-Methylthio-9-(4-methylbenzenesulfonyl)-2,3,4,9-tetrahydro-1H-carbazol-3-yl]dimethylamine] | 105.2 to 115 °C | 26.1 nM | 13.8 nM
5 | CN(C)C1CCc2c(c3cc(Cl)ccc3n2S(=O)(=O)c2ccccc2)C1 (stereo not drawn) | 150 to 155 °C | – | –
6 | COc1ccc2c(c1)c1c(n2S(=O)(=O)c2cccc(C(F)(F)F)c2)CCC(N(C)C)C1 (stereo not drawn) [Example 31, [6-Methoxy-9-(3-trifluoromethylbenzenesulfonyl)-2,3,4,9-tetrahydro-1H-carbazol-3-yl]dimethylamine] | 144 to 146 °C | – | –
7 | CN(C)C1CCc2c(c3cc(F)ccc3n2S(=O)(=O)c2ccccc2)C1 (stereo not drawn) [Example 21, [6-Fluoro-9-benzenesulfonyl-2,3,4,9-tetrahydro-1H-carbazol-3-yl]dimethylamine] | 127.7 to 130.3 °C | 30.5 nM | 15.7 nM
8 | CN(C)C1CCc2c(c3cc(Br)ccc3n2S(=O)(=O)c2cccc(Cl)c2Cl)C1 (stereo not drawn) [Example 39, [6-Bromo-9-(2,3-dichlorobenzenesulphonyl)-2,3,4,9-tetrahydro-1H-carbazol-3-yl]dimethylamine] | 189 to 192 °C | – | –
9 | Cc1ccc(S(=O)(=O)n2c3c(c4cc(F)ccc42)CC(N(C)C)CC3)cc1 (stereo not drawn) [Example 22, [6-Fluoro-9-(4-methylbenzenesulfonyl)-2,3,4,9-tetrahydro-1H-carbazol-3-yl]dimethylamine] | 148.8 to 153 °C | 64.3 nM | 32.4 nM
10 | Cc1ccc(S(=O)(=O)n2c3c(c4cc(Cl)ccc42)CC(N(C)C)CC3)cc1 (stereo not drawn) | 130 to 138 °C | – | –
11 | CN(C)C1CCc2c(c3cc(F)ccc3n2S(=O)(=O)c2ccc(Br)cc2)C1 (stereo not drawn) [Example 24, [6-Fluoro-9-(4-bromobenzenesulfonyl)-2,3,4,9-tetrahydro-1H-carbazol-3-yl]dimethylamine] | 170.6 to 174.1 °C | 99.7 nM | 43.5 nM
12 | CN(C)C1CCc2c(c3cc(F)ccc3n2S(=O)(=O)c2ccc(F)cc2)C1 (stereo not drawn) [Example 25, [6-Fluoro-9-(4-fluorobenzenesulfonyl)-2,3,4,9-tetrahydro-1H-carbazol-3-yl]dimethylamine] | 147.5 to 151.2 °C | 63.5 nM | 32.8 nM
13 | COc1ccc2c(c1)c1c(n2S(=O)(=O)c2ccc(C)cc2)CCC(N(C)C)C1 (stereo not drawn) [Example 27, [6-Methoxy-9-(4-methylbenzenesulfonyl)-2,3,4,9-tetrahydro-1H-carbazol-3-yl]dimethylamine] | 131.8 to 140 °C | 11.7 nM | 5.89 nM
14 | COc1ccc2c(c1)c1c(n2S(=O)(=O)c2ccc(Br)cc2)CCC(N(C)C)C1 (stereo not drawn) [Example 29, [6-Methoxy-9-(4-bromobenzenesulfonyl)-2,3,4,9-tetrahydro-1H-carbazol-3-yl]dimethylamine] | 173.2 to 173.8 °C | 28.9 nM | 15.1 nM
15 | COc1ccc2c(c1)c1c(n2S(=O)(=O)c2ccccc2)CCC(N(C)C)C1 (stereo not drawn) [Example 26, [6-Methoxy-9-benzenesulfonyl-2,3,4,9-tetrahydro-1H-carbazol-3-yl]dimethylamine] | – | 10.8 nM | 5.44 nM
16 | CN(C)C1CCc2c(c3cc(Cl)ccc3n2S(=O)(=O)c2ccc(F)cc2)C1 (stereo not drawn) [Example 20, [6-Chloro-9-(4-fluorobenzenesulfonyl)-2,3,4,9-tetrahydro-1H-carbazol-3-yl]dimethylamine] | 150 to 155 °C | – | –
17 | CN(C)C1CCc2c(c3ccccc3n2S(=O)(=O)c2ccc(F)cc2)C1 (stereo not drawn) [Example 3, 9-[(4-Fluorobenzenesulphonyl)-2,3,4,9-tetrahydro-1H-carbazol-3-yl]dimethylamine] | 130.2 to 132.8 °C | 27 nM | 12.5 nM
18 | CN(C)C1CCc2c(c3cc(Br)ccc3n2S(=O)(=O)c2ccccc2Br)C1 (stereo not drawn) [Example 14, [6-Bromo-9-(2-bromobenzenesulphonyl)-2,3,4,9-tetrahydro-1H-carbazol-3-yl]dimethylamine] | 158.78 to 161.04 °C | – | –
19 | COc1ccc2c(c1)c1c(n2S(=O)(=O)c2ccc(F)cc2)CCC(N(C)C)C1 (stereo not drawn) [Example 30, [6-Methoxy-9-(4-fluorobenzenesulfonyl)-2,3,4,9-tetrahydro-1H-carbazol-3-yl]dimethylamine] | 160.7 to 163.4 °C | 52.3 nM | 24.3 nM
20 | CSc1ccc2c(c1)c1c(n2S(=O)(=O)c2ccc(F)cc2)CCC(N(C)C)C1 (stereo not drawn) [Example 35] | 148.9 to 156.1 °C | 47.1 nM | 24.9 nM
